# Key:
# C57BL/6j mice [1] = assay: Ovalbumin-specific IgG in serum, oral tolerance model; assay type: in vivo
# Method: Since it is well-known that animals can be immunized by ovalbumin (OVA) to establish the animal model for the autoimmune disease (The Journal of Pharmacology and Experimental Therapeutics 288:849-857, 1999), the present invention establishes an animal model which includes mice with OVA-induced autoimmune disease, and the mice are treated with DeCaPS to enhance oral tolerance. C57/BL6j mice ([…]) were orally treated with 0.5 mg/ml ovalbumin (OVA) in drinking water at day 4 and day 5, and DeCaPS was administrated to the C57/BL6j mice as an adjuvant at dosages of 10 mg/kg/day, 40 mg/kg/day and 160 mg/kg/day at days 3-7. 50 μg of OVA with Complete Freund's Adjuvant (CFA) was administrated to the mice as an antigen via i.p. injection at day 8 and with OVA on day 24. OVA-specific IgG and IgM in the blood was collected at day 22 and day 30. The mice were sacrificed at day 32 to collect an intestinal lavage solution of the intestinal mucosa and the lung mucosa to detect IgA in response to OVA. The detailed experimental procedures are illustrated in the following table II. […]
# C57BL/6j mice [2] = assay: Ovalbumin-specific IgM in serum, oral tolerance model; assay type: in vivo
# Method: Since it is well-known that animals can be immunized by ovalbumin (OVA) to establish the animal model for the autoimmune disease (The Journal of Pharmacology and Experimental Therapeutics 288:849-857, 1999), the present invention establishes an animal model which includes mice with OVA-induced autoimmune disease, and the mice are treated with DeCaPS to enhance oral tolerance. […] 50 μg of OVA with Complete Freund's Adjuvant (CFA) was administrated to the mice as an antigen via i.p. injection at day 8 and with OVA on day 24. OVA-specific IgG and IgM in the blood was collected at day 22 and day 30. The mice were sacrificed at day 32 to collect an intestinal lavage solution of the intestinal mucosa and the lung mucosa to detect IgA in response to OVA. The detailed experimental procedures are illustrated in the following table II.
# With comparison to the IgM antibody level expressed in the control group at day 22, the IgM antibody level expressed in the normal group was decreased by about 49% (p<0.05), the IgM antibody level-expressed in the positive control group was suppressed by about 87% (p<0.05), the IgM antibody level-expressed in the DC-1 group was suppressed by about 46% (p<0.02), the IgM antibody level-expressed in the DC-2 group was suppressed by about 88% (p<0.001), and the IgM antibody level in the DC-3 group was suppressed by about 86% (p<0.001). […]
# [3] = day 22, positive control group (oral OVA days 1-5, no DeCaPS)
# [4] = day 30, positive control group (oral OVA days 1-5, no DeCaPS)
substance,measurement,setting,value
ovalbumin [ovalbumin antigen],IgG antibody level suppressed vs control group,C57BL/6j mice [1]; [3],about 94%
same,IgG antibody level suppressed vs control group,C57BL/6j mice [1]; [4],about 75%
same,IgM antibody level suppressed vs control group,C57BL/6j mice [2]; [3],about 87%
same,IgM antibody level suppressed vs control group,C57BL/6j mice [2]; [4],about 72%

# Source: patent publication US7939110B2, “Composition and method for treating autoimmune disease and mucosal disorder” (National Yang-Ming University, priority 2005, dated 2011)
